From patent US5488049A, “Method of treating learning and memory disorders using benzothiadiazide derivatives as nootropic agents” (FIDIA - Georgetown Institute for the Neuro-Sciences, priority 1993, dated 1996) come the findings set out here.

Entries after “also recorded” stand apart in the source; their conditions may differ.

Test [1] concerns AMPA receptors located on CAl pyramidal neuronal membranes. The experiment in a line: Slow bath perfusion, whole-cell: potentiation of glutamate-elicited current (with MK-801) in CAl pyramidal neurons of hippocampal slices. Type of test: cell-based, rat. As to the method: Young rats (12-16 days old) were decapitated and the brains quickly removed and placed in ice-cold Ringer solution. Thin slices of hippocampus (250 μm) were then cut with a vibratome slicer (Lancer, St. Louis, Mo.) and kept in Ringer solution at 37° C. until use. The experiments were carried out at room temperature with the slice totally submerged in a 1 ml volume recording chamber and under continuous perfusion with Ringer solution at a rate of 6 ml/min using an upright Hoffman modulation contrast microscope (Carl Zeiss, Germany) equipped with a 40×water immersion objective.
Media and drug application. The external Ringer solution contained (in mM): NaCl 120; KCl 3.1; CaCl2 2; MgCl2 1; KH2 PO4 1; NaHCO3 26; glucose 2.7; and it was continuously bubbled with 95% O2 and 5% CO2. Patch pipettes were filled with a solution containing (in mM): K-gluconate 140; MgCl2 1; ATP.Mg 2; EGTA 0.5; HEPES-KOH 10, pH 7.2. All the drugs under investigation were applied through the recording chamber perfusion system via parallel inputs having a common entry into the chamber. Agonist application was attained using two different systems that allowed a slow or a rapid solution change. Slow solution changes were used during recordings in whole-cell configuration and were obtained by exchanging the solution of the recording chamber within a few seconds. Fast solution changes were obtained with the use of the Y-shaped tubing method that allows complete exchange of solution in less than 10 ms, and is described in detail by Murase et al. (1989).
IDRA compounds (see above for structures) were first dissolved in 50 μl of DMSO, then […] of 1N NaOH and water (sufficient to reach a volume of 1 ml and a concentration of 10 mM). The final concentration was reached diluting the stock solution with Ringer solution.
Ionic currents in whole-cell configuration and outside-out excised membrane patches were monitored using the patch clamp technique (15).
The action diazoxide and the IDRA analogues were tested on the desensitization of AMPA receptors located on CAl pyramidal neuronal membranes in rat hippocampal slices. In order to evaluate whether the compounds under study increase the intensity of currents generated by the activation of non-NMDA receptors, these receptors were activated with glutamate in the presence of 5 μM MK-801 to block completely the ionic current elicited by glutamate acting on the NMDA receptor channels present in CAl pyramidal neurons. Three distinct methods of drug application were employed: 1) slow bath perfusion of agonist and drugs while recording in whole-cell mode (onset 30s); ii) fast application to outside-out patches of a fixed concentration of agonist with a double barrel pipette (onset<1 ms) in the presence and the absence of drugs; iii) fast perfusion (onset<6 ms) of increasing concentrations of agonist and drugs applied with the Y-tubing device to outside-out patches excised from neurons in brain slices and to voltage-clamped neurons in primary culture.
. The most efficacious (1 mM) derivative was IDRA21, which elicited a potentiation of 797±220% (n=4 cells), followed by IDRA 20 with a potentiation of 292±100% (n=4 cells) (FIG. 2). […]

The test system of test [2] is rats. The experiment in a line: Water maze: drug action on learning and retention in rats. Type of test: in vivo, rat. The method, then: Rats (male, 250 g) were trained once a day in maze A (See FIG. 8B forced maze) for 2 consecutive days. The day of the experiment, after a first exposure to maze A, IDRA 21 (15 mg/kg) Aniracetam (500 mg/kg) or vehicle (cont) were administered per oral gavage and 30 min later the animals were exposed once again to Maze A. After 30 min of interatrial rest, rats were exposed to Maze B (see FIG. 8C open maze).
(§1) The water maze apparatus was adapted from Kant et al., (16), and consists of three concentric squares placed inside a 5 ft plastic pool (FIG. 6). The walls of the maze are 50 cm in height and are constructed from black opaque plastic to allow for tracking of the animal with an overhead camera. The alleys between the walls are 16 cm wide. In the center of each wall there is a removable doorway. The opening of doorways allows for the construction of mazes with an increasing number of potential error possibilities. (See diagram for Maze A and Maze B, FIG. 6). The maze is located in a room 10'×15' at constant temperature (18° C.) adjacent to the vivarium. The room is illuminated with overhead lights which also serve as spatial cues. Additional spatial cues are provided by the position of the investigator and a number of small white x's placed within specific locations upon the walls of the maze. The maze is filled with water (18°)C. to a depth of 25 cm.
(§2) Seven days prior to drug studies, rats were tested in Maze A (forced maze) on two consecutive days. Pretesting with the "forced" maze enabled the assessment of the animals' general motor, sensory and motivational abilities, and facilitated the exclusion of those animals unable to meet pretesting criteria. Performance was assessed by determining either swim time, errors committed, or path length measured with a computerized recording device. Errors are defined as whole body entry into alleys not leading directly to the exit platform (i.e., shaded portions in FIG. 6). Rats were excluded from the study if their swim path length and/or number of errors were two standard deviations above the mean […] of the entire group. During the first two trials, the rats were placed into the center of the maze and given a maximum of 180 secs to find the "exit platform" located at the "finish" (FIG. 6). The time required, the number of errors, and the path length were recorded for each trial. […] Rats meeting the criteria were randomly divided into groups. On the day of the experiment, a single trial was run (Maze A) in order to establish a baseline of performance. Following drug administration, the rats were again tested once on Maze A to establish a baseline of post-treatment performance. Following an additional interatrial interval of 30 min., the rats were tested on Maze B.

Test [3] has as its system rats. The experiment in a line: Water maze: drug action on alprazolam-disrupted learning behavior in rats. The format is in vivo, rat. The conditions noted are these: IDRA 21 10 mg/kg os, 30 min pretreatment; alprazolam 1.5 mg/kg i.p. As to the method:
Rats (male 250 g b.w.) were trained two days, once a day, in maze A (See insert A). […] Rats were exposed to a new maze configuration (Maze B) in 4 successive trials 15, 30, 45, and 60 min after the i.p. injections.
as §1, §2
In these experiments, rats were trained in Maze B 15, 30, 45 and 60 min. after drug injection.

As to `CC1Nc2ccc(Cl)cc2S(=O)(=O)N1` (racemic) [IDRA 21, 7-chloro-3-methyl-3,4-dihydro-2H 1,2,4-benzothiadiazine S-S dioxide], the “potentiation of glutamate-elicited current” value in test [1] (10 μM compound, mean±SE, N=4 cells) was found to be 65±6.9%; in test [1] (100 μM compound, mean±SE, N=4 cells) it was 109±30%; in test [1] (1 mM compound, 50 μM glutamate, 5 μM MK-801, whole-cell, slow perfusion), 797±200%; in test [1] (1 mM compound, 50 μM glutamate, 5 μM MK-801, whole-cell, slow perfusion, listed as IDRA21), 797±220%. Also, the “efficacy relative to diazoxide (potentiation of glutamate current)” value in test [1] (1 mM) stood at 4 fold. Also, in test [1] (1 mM, maximal dose testable without vehicle effect), the “maximal efficacy reached, in words” value was “failed to reach maximal efficacy at 1 mM”. For the same compound, in test [1] (up to 1 mM), the “potentiation of glutamate current, dose dependence” value is reported as “dose-dependent potentiation”. In addition, the “efficacy in improving water maze performance of trained rats, vs aniracetam” value in test [2] (0.2 μmol icv vs aniracetam 1.8 μmol icv) is given as “at least as efficacious as aniracetam”. Besides, the “performance in water maze (errors and time, Maze B)” value in test [2] (15 mg/kg os) is “significantly improves the performance of rats, reducing the number of errors and the time interval in accomplishing the task in Maze B”. Further, in test [2] (FIG. 8A, IDRA 21 15 mg/kg, Aniracetam 500 mg/kg oral), the “improvement of water maze performance” value is “improve water performance in rats”. Also, the “significance (P) of water maze performance vs control” value in test [2] (IDRA 21 15 mg/kg, Aniracetam 500 mg/kg per oral gavage, at least 5 rats) is reported as below 0.05. Moreover, the “potency vs aniracetam in potentiating learning and enhancing cognitive performance” value in test [2] (racemic form, naive rats and rats with alprazolam-disrupted learning) is given as “at least an order of magnitude more potent than aniracetam”. In addition, the “antagonism of alprazolam amnesic effect” value in test [3] is recorded as “reduces the amnesic effect of alprazolam; also recorded: attenuates the learning disruptive effect of Alprazolam”.
